As usually defined, the minimal effective dose is the smallest amount tested that counted as effective. By melting point is commonly meant the temperature, or range, at which the solid turns liquid.

Ki, minimal effective dose and melting point data for ten molecules are collected here from patent publication US6579881B2 (Eisai Co., Ltd., priority 1997, dated 2003).

SMILES strings stand for the structures. Read-outs that look alike come from different tables or passages of the source.

For one data set, the target named is T1, serotonin 1A receptor (Rattus norvegicus, UniProt P19327).
T1 construct: To the receptor fraction of the hippocampus were added a test compound and 0.5 nM of [^3H]; 8-hydroxy-dipropylaminotetralin; from tissue; host or cells: SD rat hippocampus, membrane (receptor) fraction
T1 sequence (P19327 1-422): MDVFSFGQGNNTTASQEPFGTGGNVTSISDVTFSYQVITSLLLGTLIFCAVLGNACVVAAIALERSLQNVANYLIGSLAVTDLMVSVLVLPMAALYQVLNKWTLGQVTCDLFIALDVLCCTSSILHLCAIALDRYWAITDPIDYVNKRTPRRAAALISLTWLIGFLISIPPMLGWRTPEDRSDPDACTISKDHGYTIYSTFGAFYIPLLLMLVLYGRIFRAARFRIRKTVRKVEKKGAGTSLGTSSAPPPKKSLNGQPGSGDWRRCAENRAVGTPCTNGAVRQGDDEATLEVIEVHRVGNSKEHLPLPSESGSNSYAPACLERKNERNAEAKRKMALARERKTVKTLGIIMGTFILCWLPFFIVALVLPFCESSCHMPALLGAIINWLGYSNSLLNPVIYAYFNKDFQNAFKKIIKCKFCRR
As to the kind of experiment: Binding test on [3H] 8-hydroxy-dipropylaminotetralin (serotonin 1A receptor). As to conditions: [3H] 8-OH-DPAT 0.5 nM, receptor fraction of rat hippocampus; read-out: 5HT1a.

In the next data set the target is serotonin 2 receptor (Rattus norvegicus, UniProt P14842). As to the kind of experiment: Binding test on [3H] ketanserin (serotonin 2 receptor). As to conditions: [3H] ketanserin 0.3 nM, receptor fraction of rat cerebral cortex; read-out: 5HT2.
Sequence of serotonin 2 receptor (P14842 whole entry): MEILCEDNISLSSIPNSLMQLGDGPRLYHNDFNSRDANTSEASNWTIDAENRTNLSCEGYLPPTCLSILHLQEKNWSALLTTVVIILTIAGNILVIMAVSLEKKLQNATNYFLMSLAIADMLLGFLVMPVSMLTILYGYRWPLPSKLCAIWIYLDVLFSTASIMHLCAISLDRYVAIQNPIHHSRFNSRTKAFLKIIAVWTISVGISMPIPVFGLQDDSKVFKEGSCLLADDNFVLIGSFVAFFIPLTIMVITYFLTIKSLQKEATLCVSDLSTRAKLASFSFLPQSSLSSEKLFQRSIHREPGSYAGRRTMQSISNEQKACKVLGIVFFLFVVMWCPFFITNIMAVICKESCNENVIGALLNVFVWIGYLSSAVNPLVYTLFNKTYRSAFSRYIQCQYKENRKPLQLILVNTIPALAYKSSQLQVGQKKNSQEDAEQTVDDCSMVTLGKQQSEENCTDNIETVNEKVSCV
The target of a further data set is α1 adrenalin receptor. The experiment in a line: Binding test on [3H] prazosin (α1 adrenalin receptor). Set-up: species or system rat. To be noted: [3H] prazosin about 0.2 nM, receptor fraction of rat cerebral cortex.
Data set [1] has as its system Straub's tail reaction (hyper-muscle tone in the tail). The experiment in a line: Morphine induced Straub's tail phenomenon in mice. The data set is classed as in vivo. As to conditions: Mus musculus, male ddY mice, 15 min before morphine hydrochloride 12.5 mg/kg s.c., statistically significant (p<0.05).
[2] abbreviates: ip, i.p., read-out: minimal effective dose i.p.
Where [3] appears, read: po, p.o., read-out: minimal effective dose p.o.

`CC(=O)NCCc1ccc2c(c1)N(C1CCN(CCc3ccc(F)cc3)CC1)CC2` [Example 166, 1-[1-(4-fluorophenethyl)piperidin-4-yl]-6-acetamidoethylindoline]: the Ki is 0.79 nM at serotonin 1A receptor, 17.1 nM at serotonin 2 receptor and 194 nM at α1 adrenalin receptor. The minimal effective dose in data set [1] (setting [2]) and in data set [1] (setting [3]) was 3 mg/kg throughout.

Take `CC(=O)N1CCC(Cc2ccc3c(c2)N(C2CCN(CCc4ccc(F)cc4)CC2)CC3)CC1` [Example 168, 1-[1-(4-fluorophenethyl)piperidin-4-yl]-6-[(1-acetylpiperidin-4-yl)methyl]indoline]: the values for the Ki at serotonin 1A receptor, at serotonin 2 receptor and at α1 adrenalin receptor were 3.84 nM, 4.06 nM and 72.6 nM, respectively. In addition, the minimal effective dose in data set [1] (setting [3]) was 10 mg/kg.

Take `CC(c1ccc2c(c1)N(C1CCN(CCc3ccc(F)cc3)CC1)CC2)c1ccccn1` (stereo not shown) [Example 182, 1-[1-(4-fluorophenethyl)piperidin-4-yl]-6-[1-(2-pyridyl)ethyl]indoline]: the Ki on serotonin 1A receptor came to 4.28 nM; at serotonin 2 receptor, 2.91 nM; at α1 adrenalin receptor it was 70.1 nM. Also, the minimal effective dose in data set [1] (setting [3]) came out at 10 mg/kg.

On to `COc1ncccc1C(O)c1ccc2c(c1)N(C1CCN(CCc3ccc(F)cc3)CC1)CC2` (stereo not shown) [Example 184, 1-[1-(4-fluorophenethyl)piperidin-4-yl]-6-[1-hydroxy-1-(2-methoxypyridin-3-yl)methyl]indoline], for which the results for the Ki at serotonin 1A receptor, at serotonin 2 receptor and on α1 adrenalin receptor were 15.1 nM, 3.06 nM and 188 nM, respectively. Also, the minimal effective dose in data set [1] (setting [3]) worked out at 3 mg/kg.

Regarding `COc1ccc(Cc2ccc3c(c2)N(C2CCN(CCc4ccc(F)cc4)CC2)CC3)cn1` [Example 189, 1-[1-(4-fluorophenethyl)piperidin-4-yl]-6-[1-(2-methoxypyridin-5-yl)methyl]indoline], the Ki at serotonin 1A receptor came out at 7.72 nM; on serotonin 2 receptor, 2.02 nM; at α1 adrenalin receptor, 442 nM. Also, in data set [1] (setting [3]), the minimal effective dose came out at 10 mg/kg.

Consider `OC(c1ccc2c(c1)N(C1CCN(CCc3ccc(F)cc3)CC1)CC2)c1ncccn1` (stereo not shown) [Example 197, 1-[1-(4-fluorophenethyl)piperidin-4-yl]-6-[1-hydroxy-1-(pyrimidin-2-yl)methyl]indoline], for which the results for the Ki at serotonin 1A receptor, at serotonin 2 receptor and at α1 adrenalin receptor were 10.4 nM, 1.27 nM and 68.6 nM, respectively. The minimal effective dose in data set [1] (setting [3]) was 10 mg/kg.

For `O=C1CCC(=O)N1Cc1ccc2c(c1)N(C1CCN(CCc3ccc(F)cc3)CC1)CC2` [Example 204, 1-[1-(4-fluorophenethyl)piperidin-4-yl]-6-(succinimido-1-yl)methylindoline], the Ki came out at 1.06 nM on serotonin 1A receptor, 4.49 nM at serotonin 2 receptor and 183 nM at α1 adrenalin receptor. Besides, the minimal effective dose in data set [1] (setting [2]) and in data set [1] (setting [3]) was 3 mg/kg throughout.

As to `Fc1ccc(CCN2CCC(C3CCc4ccccc43)CC2)cc1` (stereo not shown) [Example 248, 1-[1-(4-fluorophenethyl)piperidin-4-yl]indan], the Ki at serotonin 1A receptor was found to be 2.9 nM; on serotonin 2 receptor, 6.8 nM; on α1 adrenalin receptor, 75.3 nM. For the same molecule, the values for the minimal effective dose in data set [1] (setting [2]) and in data set [1] (setting [3]) were at most 10 mg/kg and 30 mg/kg, respectively.

As for `COc1ccc2c(c1)CCCC2C1CCN(CCc2ccc(F)cc2)CC1` (stereo not shown) [Example 277, 1-[2-(4-fluorophenyl)ethyl]-4-(6-methoxy-1,2,3,4-tetrahydronaphthalen-1-yl)piperidine], the Ki at serotonin 1A receptor stood at 22.8 nM; on serotonin 2 receptor it was 3.9 nM; at α1 adrenalin receptor, 354 nM. In addition, the minimal effective dose is below 1 mg/kg in data set [1] (setting [2]) and 30 mg/kg in data set [1] (setting [3]).

Molecule `CC(=O)NCc1ccc2ccn(C3CCN(CCc4ccc(F)cc4)CC3)c2c1` [Example 285, 1-[1-(4-fluorophenethyl)piperidin-4-yl]-6-acetamidomethylindole] gave a melting point of 127 to 128 °C. The Ki on serotonin 1A receptor stood at 0.44 nM. For the same molecule, the Ki at serotonin 2 receptor is 1.39 nM. The molecule also yielded a Ki at α1 adrenalin receptor of 26.8 nM. For the same molecule, the minimal effective dose in data set [1] (setting [2]) is 1 mg/kg. In data set [1] (setting [3]), the minimal effective dose worked out at 1 mg/kg.
